Data as given in patent US12208143B2, “Compositions and methods for transport across the blood brain barrier” (OPHIDION INC., priority 2011, dated 2025).
“Also recorded” adds a separate entry of the source. Where two headings read alike, the source gives them in different places.

Tests used:
lynx1 mRNA [1] = assay: Knock-down of lynx1 mRNA after delivery of anti-lynx1 siRNA into cultured cortical neurons via peptide variant-siRNA complexes (qPCR); format: cell-based, mouse
primary cortical neurons = format: cell-based, mouse
lynx1 mRNA [2] = assay: lynx1 knock-down by lynx1 siRNA species in cultured cortical neurons (TaqMan qPCR); format: cell-based, mouse; conditions: siRNA transfected by Accell method, lynx1 mRNA relative to mock, FIG. 6
lynx1 mRNA [3] = assay: siRNA uptake of peptide-lynx1 siRNA complexes into primary neuronal cultures (lynx1 mRNA knock-down, qPCR); format: cell-based; conditions: 25 uM peptide + 2.5 uM lynx1 siRNA (siRNA1), poly-D arginine linker, 24 hours, primary cortical mouse neurons, FIG. 8

## MTTRTYATPYRMKVRKS [Mutant 2]
lynx1 mRNA [1]
  knock-down of lynx1 mRNA relative to the lynx1-loop2 peptide-siRNA complex: significantly reduces lynx1-loop2 peptide ability to transport siRNA into neurons; also recorded: not as effective for decreasing lynx1 expression

## MTWCDYFTPSRGKVRKS [Mutant 1]
lynx1 mRNA [1]
  decrease of lynx1 mRNA compared to RVG29 and RVG19 complexes: more effective at decreasing levels of lynx1 mRNA compared to RVG29 and RVG19; also recorded: decrease lynx1 mRNA in cultured cortical neurons more effectively than both RVG29 and RVG19
  knock-down of lynx1 mRNA relative to the lynx1-loop2 peptide-siRNA complex: as capable of translocating siRNA into neurons as is lynx1-loop2; also recorded: enhanced the knock-down compared to SEQ ID NO:2 peptide; also recorded: capable of decreasing lynx1 expression in cultured cortical neurons as well as a peptide having the sequence of SEQ ID NO:2

## MTTRTYFTPYAMADRKS [Mutant 3]
lynx1 mRNA [1]
  knock-down of lynx1 mRNA relative to the lynx1-loop2 peptide-siRNA complex: abolish lynx1-loop2 peptide function; also recorded: not as effective for decreasing lynx1 expression

## EVMEQSAGIMYRKS [lynx2-loop2]
Primary cortical neurons
  binding of biotinylated peptide to neurons in culture: did not reliably bind to neurons

## GCACUGAUUUGAUAGAAUU (siRNA; purchased Accell siRNA, chemistry not given here) [siRNA1, SMART pool siRNA A-062811-13 LYNX1, Thermo Scientific/Dharmacon]
lynx1 mRNA [2]
  reduction of lynx1 expression: more than 90%
lynx1 mRNA [1]; 5 μM peptide + 0.5 μM anti-lynx1 siRNA, 24 hours, cultured cortical neurons, lynx1-loop2 set to 100%, siRNA alone set at 0%, FIG. 10
  knock-down of lynx1 mRNA relative to the lynx1-loop2 peptide-siRNA complex: did not result in knock-down of lynx1 mRNA
lynx1 mRNA [3]
  reduction in lynx1 mRNA compared to no siRNA (Mock): no significant reduction in lynx1 mRNA levels
